Assay results as given in patent US8883833B2, “Substituted benzoazole PDE4 inhibitors for treating inflammatory, cardiovascular and CNS disorders” (Decode Genetics EHF, priority 2007, dated 2014).

Assays:
h4D7 = h4D7 (Homo sapiens, UniProt Q08499); assay: In-vitro assay for PDE4 enzymes, real-time enzyme-coupled spectrophotometric assay (Table 3); assay type: biochemical
Protocol: (§1) In-vitro assay for PDE4 enzymes. The in-vitro activity of PDE4 enzymes and the in-vitro potency of therapeutic agents described in the present invention was measured using a real-time, enzyme-coupled spectrophotometric assay. By using three different coupling enzymes, the product of the PDE4 reaction is coupled to the oxidation of the reduced form β-nicotinamide adenine dinucleotide (NADH), which dissipation can be monitored spectrophotmetrically at […]. Assay description. Buffer A containing 50 mM Tris, pH 8.0, 16 mM MgCl2 and 80 mM KCl is prepared and stored at room temperature. Buffer B containing 50 mM Tris, pH 8.0 is prepared and stored at toom temperature. Stock solutions of the following reagents are prepared in Buffer B and stored at −20° C.: Adenosine-5′-triphosphate (ATP), cyclic adenosine-5′-monophosphate (cAMP), phosphoenolpyruvate (PEP) and NADH. An assay mix is prepared by mixing Buffer A, […] (TCEP), ATP, PEP, NADH, myokinase (MK), pyruvate kinase (PK), lactate dehydroganese (LDH) and PDE4 to a final volume of 20 mL, which is enough for a single 96-well assay plate. Assay mix (180 μL) and test article (10 μL) in 1:1 DMSO/H2O mixture is pre-incubated at room temperature for 10 min. The enzymatic reaction is initiated by addition of cAMP (10 μL). Final concentration of all components in the assay (200 μL/well) are as follows: 10 mM MgCl2, 50 mM KCl, 5 mM TCEP, 2.5% DMSO, 0.4 mM NADH, 1 mM PEP, 0.04 mM ATP, 5 units MK, 1 unit PK, 1 unit LDH and appropriate amount of PDE4. Reaction progress curves are monitored in a plate reader capable of measuring light absorbance at 340 nm. A decrease in light absorbance at 340 nm is due to oxidation of NADH. Positive controls containing no test article and negative controls containing no test article and no cAMP are included on every assay plate. Reaction rates are determined from the slopes of the linear portions of the progress curves. All data is percent normalized with respect to controls and presented as percent inhibition.

h4B1 = h4B1 (Homo sapiens, UniProt Q07343); assay: as above; assay type: biochemical
Protocol: as §1

h4B1, sequence (Q07343 whole entry): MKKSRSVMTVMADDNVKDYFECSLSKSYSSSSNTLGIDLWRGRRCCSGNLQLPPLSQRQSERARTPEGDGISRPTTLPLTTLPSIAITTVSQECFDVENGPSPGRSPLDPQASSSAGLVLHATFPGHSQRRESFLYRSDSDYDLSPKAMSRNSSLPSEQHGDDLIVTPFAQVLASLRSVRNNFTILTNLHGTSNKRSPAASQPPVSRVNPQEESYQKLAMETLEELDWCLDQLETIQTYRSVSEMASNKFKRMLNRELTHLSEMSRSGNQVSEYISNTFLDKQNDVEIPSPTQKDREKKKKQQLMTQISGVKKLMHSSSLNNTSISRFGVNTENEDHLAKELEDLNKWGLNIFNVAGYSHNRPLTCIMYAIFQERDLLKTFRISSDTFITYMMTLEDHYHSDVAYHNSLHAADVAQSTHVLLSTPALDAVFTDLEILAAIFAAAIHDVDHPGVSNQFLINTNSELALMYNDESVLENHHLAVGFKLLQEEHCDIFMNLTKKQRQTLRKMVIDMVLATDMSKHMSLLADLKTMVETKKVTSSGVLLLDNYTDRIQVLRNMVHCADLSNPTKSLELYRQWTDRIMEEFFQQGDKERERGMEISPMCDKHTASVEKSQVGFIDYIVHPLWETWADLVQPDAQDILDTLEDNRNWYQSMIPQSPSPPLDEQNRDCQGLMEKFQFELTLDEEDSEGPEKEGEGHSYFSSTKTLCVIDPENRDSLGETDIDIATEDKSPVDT
h4D7, sequence (Q08499 1-748 isoform Q08499-11): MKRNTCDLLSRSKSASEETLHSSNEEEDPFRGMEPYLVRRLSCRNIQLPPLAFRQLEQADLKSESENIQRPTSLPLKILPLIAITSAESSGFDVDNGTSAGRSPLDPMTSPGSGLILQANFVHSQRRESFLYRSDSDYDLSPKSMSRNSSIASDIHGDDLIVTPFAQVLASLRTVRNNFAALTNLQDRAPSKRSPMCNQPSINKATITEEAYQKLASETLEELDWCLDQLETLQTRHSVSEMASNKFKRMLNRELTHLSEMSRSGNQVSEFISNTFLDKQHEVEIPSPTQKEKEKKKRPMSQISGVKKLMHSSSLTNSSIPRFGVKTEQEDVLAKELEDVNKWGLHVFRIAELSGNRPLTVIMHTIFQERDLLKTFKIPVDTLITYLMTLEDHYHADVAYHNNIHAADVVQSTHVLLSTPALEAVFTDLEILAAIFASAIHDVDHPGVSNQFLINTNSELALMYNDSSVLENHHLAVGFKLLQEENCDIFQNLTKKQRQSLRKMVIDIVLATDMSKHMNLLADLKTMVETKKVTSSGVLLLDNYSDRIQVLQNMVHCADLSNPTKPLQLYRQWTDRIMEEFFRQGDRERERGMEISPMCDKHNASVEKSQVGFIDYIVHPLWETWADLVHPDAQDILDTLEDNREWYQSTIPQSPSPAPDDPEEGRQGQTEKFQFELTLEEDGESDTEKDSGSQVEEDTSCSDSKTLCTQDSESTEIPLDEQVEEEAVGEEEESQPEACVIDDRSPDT

| IC50 (h4D7) [µM] | IC50 (h4B1) [µM] | Compound |
| --- | --- | --- |
| 1 to 10 | 1 to 10 | CS(=O)(=O)Nc1ccc(Cc2cc3sc(N)nc3c(-c3cccc(Cl)c3)c2F)cc1 [Example 19, N-{4-[2-amino-4-(3-chloro-phenyl)-5-fluoro-benzothiazol-6-ylmethyl]-phenyl}-methanesulfonamide] |
| < 1 | 1 to 10 | Nc1nc2c(-c3ccc4c(c3)OCO4)cc(Cc3ccc(F)cc3)cc2s1 [Example 4, 4-Benzo[1,3]dioxol-5-yl-6-(4-fluoro-benzyl)-benzothiazol-2-ylamine] |
| < 1 | 1 to 10 | Nc1nc2c(-c3ccc4nonc4c3)cc(Cc3ccc(F)cc3)cc2s1 [Example 3, 4-Benzol[1,2,5]oxadiazol-5-yl-6-(4-fluoro-benzyl)-benzothiazol-2-yl amine] |
| 1 to 10 | 10 to 20 | CC(=O)N1CCN(Cc2cc3scnc3c(-c3cccc(Cl)c3)c2F)CC1 [Example 44, 1-{4-[4-(3-Chloro-phenyl)-5-fluoro-benzothiazol-6-ylmethyl]-piperazin-1-yl}-ethanone] |
| < 1 | < 1 | CCNC(=O)Nc1ccc(Cc2cc3scnc3c(-c3cccc(Cl)c3)c2F)cn1 [Example 33, 1-[5-[4-(3-chloro-phenyl)-5-fluoro-benzothiazol-6-ylmethyl]-pyridin-2-yl]-3-ethyl-urea] |
| < 1 | < 1 | Cc1nc2c(-c3cccc(Cl)c3)cc(Cc3ccc(N)cc3)cc2o1 [Example 22, 4-{[4-(3-chlorophenyl)-2-methyl-1,3-benzoxazol-6-yl]methyl}aniline] |
| < 1 | 1 to 10 | Nc1nc2c(-c3ccc4c(c3)OCO4)nc(Cc3ccc(F)cc3)nc2s1 [Example 11, 7-Benzo[1,3]dioxol-5-yl-5-(4-fluorobenzyl)-thiazolo[5,4-d]pyrimidin-2-ylamine] |
| 1 to 10 | 1 to 10 | Nc1nc2c(-c3ccc4c(c3)OCO4)cc(Cn3cccn3)cc2s1 [Example 9, 4-Benzo[1,3]dioxol-5-yl-6-pyrazol-1-ylmethyl-benzothiazol-2-ylamine] |
| < 1 | 1 to 10 | COc1ccc(Cc2cc3scnc3c(-c3cccc(Cl)c3)c2F)cn1 [Example 38, 4-(3-chloro-phenyl)-5-fluoro-6-(6-methoxy-pyridin-3-ylmethyl)-benzothiazole] |

The next lines start with the compound.

| Compound | IC50 (h4D7) [µM] | IC50 (h4B1) [µM] |
| --- | --- | --- |
| Nc1ccc(Cc2cc(-c3cccc(Cl)c3)c3nc(N)oc3c2)cc1 [Example 32, 6-(4-aminobenzyl)-4-(3-chlorophenyl)-1,3-benzoxazol-2-amine] | < 1 | < 1 |
| NC(=O)N1CCN(Cc2cc3scnc3c(-c3cccc(Cl)c3)c2F)CC1 [Example 31, 4-[4-(3-Chloro-phenyl)-5-fluoro-benzothiazol-6-ylmethyl]-piperazine-1-carboxylic acid amide] | < 1 | < 1 |
| Nc1ccc(Cc2cc3scnc3c(-c3cccc(Cl)c3)c2F)cc1 [Example 23, 4-[4-(3-chloro-phenyl)-5-fluoro-benzothiazol-6-ylmethyl]-phenylamine] | < 1 | < 1 |
| Cn1nccc1C(O)c1cc(-c2ccc3c(c2)OCO3)c2nc(N)sc2c1 (centres unmarked) [Example 6, (2-Amino-4-benzo[1,3]dioxol-5-yl-benzothiazol-6-yl)-(2-methyl-2H-pyrazol-3-yl)-methanol] | 1 to 10 | 10 to 20 |
| CS(=O)(=O)Nc1ccc(Cc2cc(-c3cccc(Cl)c3)c3nc(N)oc3c2)cc1 [Example 20, N-{4-[2-Amino-4-(3-chloro-phenyl)-benzooxazol-6-ylmethyl]-phenyl}-methanesulfonamide] | < 1 | 1 to 10 |
| Nc1nc2c(-c3cccc(C(F)(F)F)c3)cc(Cc3ccc(F)cc3)cc2s1 [Example 7, 6-(4-Fluoro-benzyl)-4-(3-trifluoromethyl-phenyl)-benzothiazol-2-ylamine] | < 1 | 1 to 10 |
| Nc1nc2c(-c3cccc([N+](=O)[O-])c3)cc(Cn3ccnc3)cc2s1 [Example 2, 6-imidazol-1-ylmethyl-4-(3-nitro-phenyl)-benzothiazol-2-ylamine] | < 1 | < 1 |
